According to ChEMBL document CHEMBL1201862, “PubChem BioAssay data set” (2004):
Calls of active or inactive are those of the source.

Tests used:
[1] = target: Mu-type opioid receptor (Homo sapiens, UniProt P35372); test: (§1) Counterscreen for agonists of heterodimerization of the mu 1 (OPRM1) and delta 1 (OPRD1) opioid receptors: Luminescence-based cell-based high throughput dose response assay to identify agonists of OPRM1 homodimerization.; assay type: functional
[2] = inhibitors of clade B AD8 Env fusion, dose response, cell-based, cherry-pick (AID 652062); assay type: functional;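 note: luciferase signal from cell-cell fusion driven by HIV-1 clade B AD8 Env; potency is for inhibitors of fusion seen as a drop in luminescence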
[3] = inhibitors of HIV Env-driven cell fusion, dose response, cherry-pick (AID 652057); assay type: functional, cell-based
[4] = off-target signal loss in HeLa-CEM21 co-culture – HeLa F-luc CTL cells, cherry-picked, counter-screen for HIV-1 Env fusion inhibitor project, dose response (AID 652040); assay type: functional, cell-based;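 note: potency for signal decrease marking cytotoxic or nonspecific inhibition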
[5] = ZM109 Env clade C HIV-1 fusion inhibitors, dose response, HeLa effector, CEM target cells, luciferase, cherry-pick (AID 652058); assay type: functional, cell-based
[6] = target: T1, Short transient receptor potential channel 4 (Mus musculus, UniProt Q9QUQ5); test: mouse TRPC4 channel activators, dose response, cell-based, HEK293 TRPC4/mu-opioid, Fluo-4 calcium (AID 434937); assay type: functional
T1 sequence (Q9QUQ5 whole entry): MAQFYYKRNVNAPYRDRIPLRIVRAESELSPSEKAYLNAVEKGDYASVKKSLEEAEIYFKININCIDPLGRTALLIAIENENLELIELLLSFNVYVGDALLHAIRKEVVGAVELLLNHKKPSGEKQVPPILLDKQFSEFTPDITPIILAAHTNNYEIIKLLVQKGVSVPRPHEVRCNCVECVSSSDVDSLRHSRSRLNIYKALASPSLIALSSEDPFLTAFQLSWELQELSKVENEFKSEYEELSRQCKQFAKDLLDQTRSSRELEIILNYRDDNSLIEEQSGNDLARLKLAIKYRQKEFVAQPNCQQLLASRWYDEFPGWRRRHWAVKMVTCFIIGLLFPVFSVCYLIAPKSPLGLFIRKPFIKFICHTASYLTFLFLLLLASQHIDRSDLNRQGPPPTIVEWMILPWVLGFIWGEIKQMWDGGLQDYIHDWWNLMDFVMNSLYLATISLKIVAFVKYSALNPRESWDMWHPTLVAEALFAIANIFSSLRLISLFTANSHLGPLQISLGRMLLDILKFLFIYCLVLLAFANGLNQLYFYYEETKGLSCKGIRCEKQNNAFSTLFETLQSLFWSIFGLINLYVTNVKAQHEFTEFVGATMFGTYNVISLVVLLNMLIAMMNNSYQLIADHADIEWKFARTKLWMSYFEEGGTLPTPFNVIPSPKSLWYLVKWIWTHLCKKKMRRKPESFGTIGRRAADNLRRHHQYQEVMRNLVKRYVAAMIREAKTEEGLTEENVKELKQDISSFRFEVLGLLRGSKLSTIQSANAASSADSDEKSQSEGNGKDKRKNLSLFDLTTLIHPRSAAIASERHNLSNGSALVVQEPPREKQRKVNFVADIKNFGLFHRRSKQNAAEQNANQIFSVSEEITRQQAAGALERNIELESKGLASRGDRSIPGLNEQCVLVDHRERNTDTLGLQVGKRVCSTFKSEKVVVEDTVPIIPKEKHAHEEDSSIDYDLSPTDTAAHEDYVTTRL

[7] = target: 5-hydroxytryptamine receptor 5A (Homo sapiens, UniProt P47898); test: Counterscreen for agonists of OPRM1-OPRD1 heterodimerization: luminescence-based cell-based high throughput dose response assay to identify agonists of 5-hydroxytryptamine (serotonin) 5A receptor (HTR5A). [Related pubchem assays (depositor defined):AID504326, AID504355, AID504692, AID504904, AID504905]; assay type: functional
[8] = target: Delta-type opioid receptor (Homo sapiens, UniProt P41143); test: as §1, with “of OPRD1” for “of OPRM1”, “homodimerization. [Related pubchem assays (depositor defined):AID504326, AID504355, AID504692, AID504904, AID504905]” for “homodimerization.”; assay type: functional
[9] = tested on: HEK293; test: cells; conditions: Homo sapiens
[10] = target: Disintegrin and metalloproteinase domain-containing protein 17 (Homo sapiens, UniProt P78536); test: ADAM17 protease inhibitors, dose response, counter-screen for ADAM10 exosite inhibitor project, biochemical, quenched FRET substrate (AID 743253)
[11] = tested on: HEK293; test: cells; conditions: Homo sapiens; remark: listed apart in the source
[12] = ADAM10 inhibitors, peptide cleavage, dose response, biochemical, QFRET (AID 743254);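 note: ADAM10 enzyme with the DM2 quenched FRET peptide as substrate; EDANS fluorescence gain as the protease cuts the substrate; inhibitor potency against ADAM10 proteolytic activity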
[13] = target: Lysine-specific demethylase 4C (Homo sapiens, UniProt Q9H3R0); test: GASC-1 (JMJD2C) histone demethylase inhibitors, dose response, biochemical, DELFIA europium, cherry-picked samples (AID 488835); assay type: functional
[14] = tested on: Vero; test: cells; assay type: functional; conditions: Chlorocebus sabaeus
[15] = cytotoxicity in HMLE control line with eGFP shRNA, dose response, counter-screen for HMLE_sh_ECad selective toxicity project, cell-based, HMLE_sh_eGFP, luminescence (AID 463074); assay type: functional, Homo sapiens;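 note: HMLE human mammary epithelial cells expressing control shRNA against eGFP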
[16] = Luminescence Cell-Based Dose Retest to Confirm Inhibitors of Cancer Stem Cells. [Related pubchem assays (depositor defined):AID2717, AID2721]; assay type: functional; conditions: Homo sapiens

Chain of Lysine-specific demethylase 4C (Q9H3R0 whole entry): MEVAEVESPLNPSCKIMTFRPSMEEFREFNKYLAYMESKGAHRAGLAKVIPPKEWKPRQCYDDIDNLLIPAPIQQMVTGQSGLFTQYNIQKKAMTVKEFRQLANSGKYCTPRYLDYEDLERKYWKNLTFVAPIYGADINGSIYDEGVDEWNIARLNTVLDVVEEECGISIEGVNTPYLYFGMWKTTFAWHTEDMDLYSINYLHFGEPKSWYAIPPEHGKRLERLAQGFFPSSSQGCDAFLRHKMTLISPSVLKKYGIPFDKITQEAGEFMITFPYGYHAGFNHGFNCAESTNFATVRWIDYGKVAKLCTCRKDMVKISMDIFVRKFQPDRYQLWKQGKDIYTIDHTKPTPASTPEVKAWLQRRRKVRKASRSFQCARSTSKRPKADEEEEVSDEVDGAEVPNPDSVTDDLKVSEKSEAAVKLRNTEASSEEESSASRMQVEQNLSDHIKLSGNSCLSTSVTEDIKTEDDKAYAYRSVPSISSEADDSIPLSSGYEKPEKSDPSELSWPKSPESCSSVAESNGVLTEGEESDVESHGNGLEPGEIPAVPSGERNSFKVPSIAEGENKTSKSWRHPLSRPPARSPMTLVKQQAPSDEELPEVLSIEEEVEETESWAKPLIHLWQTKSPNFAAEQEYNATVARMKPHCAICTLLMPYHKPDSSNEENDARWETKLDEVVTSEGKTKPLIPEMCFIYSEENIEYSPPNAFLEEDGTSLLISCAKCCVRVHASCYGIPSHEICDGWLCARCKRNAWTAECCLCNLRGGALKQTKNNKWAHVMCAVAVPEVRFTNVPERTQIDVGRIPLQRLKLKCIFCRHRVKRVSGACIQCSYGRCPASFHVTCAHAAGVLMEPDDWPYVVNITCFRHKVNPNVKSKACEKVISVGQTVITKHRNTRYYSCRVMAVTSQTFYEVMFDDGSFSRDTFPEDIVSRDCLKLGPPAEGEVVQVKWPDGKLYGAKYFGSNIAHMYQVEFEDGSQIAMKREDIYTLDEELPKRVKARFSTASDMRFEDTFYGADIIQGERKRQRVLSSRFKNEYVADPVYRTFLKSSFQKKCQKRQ
Chain of 5-hydroxytryptamine receptor 5A (P47898 whole entry): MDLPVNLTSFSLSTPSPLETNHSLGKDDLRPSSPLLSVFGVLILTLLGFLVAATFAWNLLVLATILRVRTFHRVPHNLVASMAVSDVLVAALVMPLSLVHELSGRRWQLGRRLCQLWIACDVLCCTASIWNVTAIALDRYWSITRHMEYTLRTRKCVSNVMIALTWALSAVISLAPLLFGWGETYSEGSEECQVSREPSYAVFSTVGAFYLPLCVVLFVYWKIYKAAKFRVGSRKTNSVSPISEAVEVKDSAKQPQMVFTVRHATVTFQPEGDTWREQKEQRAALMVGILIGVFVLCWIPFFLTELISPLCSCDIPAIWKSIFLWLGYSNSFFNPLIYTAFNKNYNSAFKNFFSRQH
Chain of Disintegrin and metalloproteinase domain-containing protein 17 (P78536 whole entry, the tested form may be a part): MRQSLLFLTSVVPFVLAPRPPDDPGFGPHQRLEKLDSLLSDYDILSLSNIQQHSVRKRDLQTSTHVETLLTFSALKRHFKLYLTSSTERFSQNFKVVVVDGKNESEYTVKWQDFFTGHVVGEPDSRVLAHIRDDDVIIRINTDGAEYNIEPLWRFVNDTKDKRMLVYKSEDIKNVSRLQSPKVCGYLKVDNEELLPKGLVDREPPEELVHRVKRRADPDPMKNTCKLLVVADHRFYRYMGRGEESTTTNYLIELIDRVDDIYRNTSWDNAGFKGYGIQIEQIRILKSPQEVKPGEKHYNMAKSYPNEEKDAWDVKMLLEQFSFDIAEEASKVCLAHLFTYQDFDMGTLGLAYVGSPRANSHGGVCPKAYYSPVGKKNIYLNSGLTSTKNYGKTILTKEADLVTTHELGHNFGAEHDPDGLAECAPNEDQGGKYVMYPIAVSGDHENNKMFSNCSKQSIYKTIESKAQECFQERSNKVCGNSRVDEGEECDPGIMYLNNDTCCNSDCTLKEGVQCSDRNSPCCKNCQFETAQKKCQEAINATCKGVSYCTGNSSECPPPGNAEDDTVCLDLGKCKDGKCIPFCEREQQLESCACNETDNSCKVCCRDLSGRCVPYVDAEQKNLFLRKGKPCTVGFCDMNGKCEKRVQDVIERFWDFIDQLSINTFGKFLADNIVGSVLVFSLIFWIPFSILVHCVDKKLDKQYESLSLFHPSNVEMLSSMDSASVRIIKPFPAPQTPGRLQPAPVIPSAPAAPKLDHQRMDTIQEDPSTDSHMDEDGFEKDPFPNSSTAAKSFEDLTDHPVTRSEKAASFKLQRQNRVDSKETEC
Chain of Mu-type opioid receptor (P35372 whole entry, the tested form may be a part): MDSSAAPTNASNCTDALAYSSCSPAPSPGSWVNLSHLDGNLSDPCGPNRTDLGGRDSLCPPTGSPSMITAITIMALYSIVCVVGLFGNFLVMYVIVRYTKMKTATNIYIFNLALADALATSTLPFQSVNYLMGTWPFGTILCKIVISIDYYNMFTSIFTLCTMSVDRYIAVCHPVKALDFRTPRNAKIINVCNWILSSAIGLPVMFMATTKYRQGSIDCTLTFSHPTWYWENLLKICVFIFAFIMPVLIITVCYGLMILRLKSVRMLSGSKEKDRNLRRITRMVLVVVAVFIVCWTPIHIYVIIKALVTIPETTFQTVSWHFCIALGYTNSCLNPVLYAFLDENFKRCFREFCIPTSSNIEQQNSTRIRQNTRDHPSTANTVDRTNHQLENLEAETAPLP
Chain of Delta-type opioid receptor (P41143 whole entry): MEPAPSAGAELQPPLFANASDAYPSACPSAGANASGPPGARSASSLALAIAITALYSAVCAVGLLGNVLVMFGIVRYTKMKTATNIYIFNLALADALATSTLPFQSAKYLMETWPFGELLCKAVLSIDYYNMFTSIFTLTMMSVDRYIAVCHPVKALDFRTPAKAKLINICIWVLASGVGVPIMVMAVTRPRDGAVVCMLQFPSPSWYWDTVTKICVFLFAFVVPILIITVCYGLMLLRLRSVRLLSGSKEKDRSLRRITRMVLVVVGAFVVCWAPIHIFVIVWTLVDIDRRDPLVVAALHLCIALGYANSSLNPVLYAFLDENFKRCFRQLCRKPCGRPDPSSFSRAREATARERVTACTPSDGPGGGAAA

Cc1ccc(C)c(-n2cc(CNCCCn3cccn3)c(-c3ccccc3)n2)c1
EC50 [1]: 10.1 µM (inactive)
AC50 [2]: 2.56 µM (active)
AC50 [3]: 1.28 µM (active)
AC50 [4]: 1.82 µM (active)
AC50 [5]: 631 nM (active)
EC50 [6]: 1.5 µM (active)
EC50 [7]: > 92.5 µM (inactive)
EC50 [8]: > 92.5 µM (inactive)

O=S(=O)(NCC(Nc1ccc(Cl)cc1)c1ccccc1)c1ccc(Cl)cc1 (stereo unspecified)
EC50 [9]: > 59.7 µM (inactive)
IC50 [10]: > 69.5 µM (inactive)
EC50 [11]: > 59.7 µM (inactive)
IC50 [12]: 11.7 µM (inactive)

Oc1cc(NC2CCCCCC2)nc(O)n1
AC50 [13]: 8.69 µM (active)

Cc1cc(N/N=C/c2ccc(Cl)cc2Cl)nc(NCc2ccccc2)n1
CC50 [14]: > 25 µM (active)
AC50 [15]: 32.2 µM (active)
AC50 [16]: 3.49 µM (active)
